Values of other authors in PubChem BioAssay AID1259409 (Chemical Carcinogenesis Research Information System (CCRIS), 2018).

System: rodent chemically induced tumor inhibition, incidence and multiplicity
Test: CCRIS tumor inhibitor studies
Conditions: Carcinogen: DIETHYLNITROSAMINE, 55-18-5, Dose [Inhibitor]: 0, Route [Inhibitor]: ORAL, Species: RAT, Strain/Sex: BD6/FEMALE, Promoter: NONE USED

In the case of O=C1O[C@H]([C@@H](O)CO)C(O)=C1O, the “tumour outcome (control, treated, inhibition, significance)” value (3 G/L IN DRINKING WATER BEGINNING 1 D PRIOR TO FIRST CARCINOGEN DOSE AND CONTINUING TO 2 D POST LAST CARCINOGEN DOSE, Target Tissue: Type of Lesion: LIVER: TUMOR, Dose [Carcinogen]: 80 MG/KG BW 1/WK FOR 8 WK) is given as 94%, 90%, 4%, not significant, the “tumour outcome (control, treated, inhibition, significance)” value (3 G/L IN DRINKING WATER FOR DURATION OF STUDY BEGINNING 1 D PRIOR TO FIRST CARCINOGEN DOSE (STUDY DURATION: 6 MO), Target Tissue: Type of Lesion: ESOPHAGUS: TUMOR, Dose [Carcinogen]: 80 MG/KG BW 1/WK FOR 6 WK) is given as 14%, 0%, 100%, not significant and the “tumour outcome (control, treated, inhibition, significance)” value (3 G/L IN DRINKING WATER FOR DURATION OF STUDY BEGINNING 1 D PRIOR TO FIRST CARCINOGEN DOSE (STUDY DURATION: 6 MO), Target Tissue: Type of Lesion: ESOPHAGUS: TUMOR, Dose [Carcinogen]: 80 MG/KG BW 1/WK FOR 10 WK) is given as 35%, 19%, 46%, not significant. The “tumour outcome (control, treated, inhibition, significance)” value (3 G/L IN DRINKING WATER FOR DURATION OF STUDY BEGINNING 1 D PRIOR TO FIRST CARCINOGEN DOSE (STUDY DURATION: 6 MO), Target Tissue: Type of Lesion: LIVER: TUMOR, Dose [Carcinogen]: 80 MG/KG BW 1/WK FOR 6 WK) was 52%, 25%, 52%, not significant, the “tumour outcome (control, treated, inhibition, significance)” value (3 G/L IN DRINKING WATER FOR DURATION OF STUDY BEGINNING 1 D PRIOR TO FIRST CARCINOGEN DOSE (STUDY DURATION: 6 MO), Target Tissue: Type of Lesion: LIVER: TUMOR, Dose [Carcinogen]: 80 MG/KG BW 1/WK FOR 10 WK) was 100%, 96%, 4%, not significant and the “tumour outcome (control, treated, inhibition, significance)” value (3 G/L IN DRINKING WATER FOR DURATION OF STUDY BEGINNING 2 D POST CARCINOGEN TREATMENT (STUDY DURATION: 6 MO), Target Tissue: Type of Lesion: ESOPHAGUS: TUMOR, Dose [Carcinogen]: 80 MG/KG BW 1/WK FOR 10 WK) was 35%, 10%, 71%, not significant. For the same compound, the “tumour outcome (control, treated, inhibition, significance)” value (10 G/L IN DRINKING WATER BEGINNING 1 D PRIOR TO FIRST CARCINOGEN DOSE AND CONTINUING TO 2 D POST LAST CARCINOGEN DOSE, Target Tissue: Type of Lesion: ESOPHAGUS: TUMOR, Dose [Carcinogen]: 80 MG/KG BW 1/WK FOR 8 WK) was 31%, 32%, -3%, not significant, the “tumour outcome (control, treated, inhibition, significance)” value (10 G/L IN DRINKING WATER BEGINNING 1 D PRIOR TO FIRST CARCINOGEN DOSE AND CONTINUING TO 2 D POST LAST CARCINOGEN DOSE, Target Tissue: Type of Lesion: LIVER: TUMOR, Dose [Carcinogen]: 80 MG/KG BW 1/WK FOR 8 WK) was 94%, 95%, -1%, not significant and the “tumour outcome (control, treated, inhibition, significance)” value (10 G/L IN DRINKING WATER FOR DURATION OF STUDY BEGINNING 1 D PRIOR TO FIRST CARCINOGEN DOSE (STUDY DURATION: 6 MO), Target Tissue: Type of Lesion: ESOPHAGUS: TUMOR, Dose [Carcinogen]: 80 MG/KG BW 1/WK FOR 10 WK) was 35%, 28%, 20%, not significant. The “tumour outcome (control, treated, inhibition, significance)” value (10 G/L IN DRINKING WATER FOR DURATION OF STUDY BEGINNING 1 D PRIOR TO FIRST CARCINOGEN DOSE (STUDY DURATION: 6 MO), Target Tissue: Type of Lesion: LIVER: TUMOR, Dose [Carcinogen]: 80 MG/KG BW 1/WK FOR 10 WK) was 100%, 88%, 12%, not significant, the “tumour outcome (control, treated, inhibition, significance)” value (10 G/L IN DRINKING WATER FOR DURATION OF STUDY BEGINNING 2 D POST CARCINOGEN TREATMENT (STUDY DURATION: 6 MO), Target Tissue: Type of Lesion: ESOPHAGUS: TUMOR, Dose [Carcinogen]: 80 MG/KG BW 1/WK FOR 10 WK) was 35%, 33%, 6%, not significant and the “tumour outcome (control, treated, inhibition, significance)” value (10 G/L IN DRINKING WATER FOR DURATION OF STUDY BEGINNING 2 D POST CARCINOGEN TREATMENT (STUDY DURATION: 6 MO), Target Tissue: Type of Lesion: LIVER: TUMOR, Dose [Carcinogen]: 80 MG/KG BW 1/WK FOR 10 WK) was 100%, 100%, 0%, not significant. For the same compound, the “tumour outcome (control, treated, inhibition, significance)” value (15 G/L IN DRINKING WATER BEGINNING 1 D PRIOR TO FIRST CARCINOGEN DOSE AND CONTINUING TO 2 D POST LAST CARCINOGEN DOSE, Target Tissue: Type of Lesion: ESOPHAGUS: TUMOR, Dose [Carcinogen]: 80 MG/KG BW 1/WK FOR 8 WK) was 31%, 26%, 16%, not significant and the “tumour outcome (control, treated, inhibition, significance)” value (15 G/L IN DRINKING WATER BEGINNING 1 D PRIOR TO FIRST CARCINOGEN DOSE AND CONTINUING TO 2 D POST LAST CARCINOGEN DOSE, Target Tissue: Type of Lesion: LIVER: TUMOR, Dose [Carcinogen]: 80 MG/KG BW 1/WK FOR 8 WK) was 94%, 90%, 4%, not significant.
